# Experimental data published in EP0346694A1, “Substituted 3-Aminosydnone imines, process for their preparation and their use” (CASSELLA Aktiengesellschaft, priority 1988, dated 1989).
# Structures can show the parent of a compound that is named as a salt.
# Tested on: Spiralstreifen der Arteria pulmonalis des Meerschweinchens
# Assay: Relaxation of potassium-depolarised, CaCl₂-contracted spiral strips of guinea pig pulmonary artery (modified method of Godfraind and Kaba / Schüman et al)
# Format: cell-based, Meerschweinchen
# Settings: Cavia porcellus; concentration inhibiting the contraction by 50 %; strips depolarised with 40 mmol/l Kalium in calcium-free Tyrode solution, contraction by 0,5 mmol/l CaCl₂; cumulative addition; mean of 4 to 6 strips; read-out: IC₅₀ (converted)
# Source text: Die pharmakologische Wirkung der verbindungen der Formel I wurde nach einer modifizierten Methode von Godfraind and Kaba (Arch.Int. Pharmacodyn. Ther. 196, (Suppl) 35 bis 49, 1972) und von Schüman et al (Naunyn-Schmiedeberg's Arch. Pharmacol. 289, 409 bis 418, 1975) ermittelt. Dabei werden Spiralstreifen der Arteria pulmonalis des Meerschweinchens nach Äquilibrierung in calciumfreier Tyrodelösung mit 40 mmol/l Kalium depolarisiert. Ein Zusatz von 0,5 mmol/l CaCl₂ löst dann eine Kontraktion aus. Die relaxierende Wirkung der Prüfsubstanz wird durch kumulative Zugabe in 1/2 log 10 abgestuften Konzentrationen ermittelt. Aus der Konzentrationswirkungskurve (Abszisse: -log mol/l Prüfsubstanz, Ordinate: % Hemmung der maximalen Kontraktion, Mittelwert von 4 bis 6 Gefäß-streifen) wird die Konzentration der Prüfsubstanz ermittelt, welche die Kontraktion um 50 % hemmt (= IC₅₀, mol/l). In der folgenden Tabelle sind die so erhaltenen IC₅₀-Werte angegeben. Wie der Vergleich mit dem IC₅₀-Wert 3·10⁻⁴ für die bekannte Verbindung Molsidomin (N-Ethoxycarbonyl-3-morpholino-sydnonimin), vgl. DE-B-16 95 897, ergibt, liegen die Werte für die Verbindungen der Formel I erheblich günstiger.
row,IC50,Compound
1,1000 nM,"CC1(C)CCCCN1[n+]1cc([NH-])on1 [b, 3-(2.2-Dimethylpiperidin-1-yl)-sydnonimin-hydrochlorid]"
2,1000 nM,"CC1(C)COCCN1[n+]1cc([NH-])on1 [a, 3-(3.3-Dimethylmorpholin-4-yl)-sydnonimin-hydrochlorid]"
3,300000 nM,"CCOC(=O)[N-]c1c[n+](N2CCOCC2)no1 [d, N-Ethoxycarbonyl-3-morpholino-sydnonimin, reference compound]"

row,Compound,IC50
1,"CC(C)N1CCN([n+]2cc([NH-])on2)C(C)(C)C1 [c, 3-(4-Isopropyl-2.2-dimethyl-piperazin-1-yl)-sydnonimin-dihydrochlorid]",1000 nM
